# Read-outs that look alike come from different tables or passages of the source.
# Assays:
# Type in all cases: physicochemical
# [1] = Hydrate screen in IPA/water system: solubility of slurried Form I; conditions: isopropyl alcohol/water mixture, organic solvent or mixture, thermodynamic from solid; for solubility: read-out: 15-16 Day Solubility
# Method: (§1) About 50 mg of Form I of (S)-2-(1-(9H-purin-6-ylamino)propyl)-5-fluoro-3-phenylquinazolin-4(3H)-one was slurried in either (A) a 1-mL mixture of a isopropyl alcohol (IPA) and water, or (B) a 1-mL mixture of ethanol and water, for several days at room temperature. As used herein, water activity (aw) in liquid phase corresponds to relative humidity in the atmosphere. For example, 0.5 aw is equivalent to 50% relative humidity.
# [2] = Hydrate screen in IPA/water system: solid form by XRPD
# Method: XRPD patterns were collected using a PANalytical X'Pert MPD Pro Powder X-Ray Diffractometer configured with reflectance stage with spinning, data acquisition range: 2-40 degrees 2θ, Copper (Cu) anode; Kα1/Kα2 radiation; tube current 40 mA; tube tension 45 kV; automatic divergence and anti-scatter slits. Samples were prepared for analysis by distributing solid material as a thin layer on a silicon holder. Each holder was mounted on a reflectance/transmittance stage and rotated during data acquisition.
# as §1
# [3] = Hydrate screen in ethanol/water system: solid form
# Method: as §1
# Form VII of (S)-2-(1-(9H-purin-6-ylamino)propyl)-5-fluoro-3-phenylquinazolin-4(3H)-one was a mixed water/ethanol solvate.
# [4] = Conversion of ball milled Form I into Form II in acetone slurry (XRPD); conditions: 10 g ball milled at 30 Hz for 10 minutes, stirred in 300 mL acetone at 28° C.
# Method: Form I was prepared as described in Example 1. Form I solids were ball milled in batches for 10 minutes at 30 Hz. Samples were analyzed by XRPD. Table 1 below summarizes the amount of polymorphic Form II observed from conversion of polymorphic Form I. Additionally, 10 g of Form I was ball milled at 30 Hz for 10 minutes and stirred in 300 mL of acetone at 28° C.
# [5] = Dry and wet grinding experiments: conversion of Form I into Form II in slurry
# Method: Form I of (S)-2-(1-(9H-purin-6-ylamino)propyl)-5-fluoro-3-phenylquinazolin-4(3H)-one was pre-processed using various grinding methods before forming a slurry in either acetone or THF and stirring at either room temperature, 22° C. or 30° C. As used in this Example, “enriched” describes a sample that contains substantially more Form II than Form I.
# [6] = Compression of Form I in hydraulic tablet press, XRPD
# Method: Form I of (S)-2-(1-(9H-purin-6-ylamino)propyl)-5-fluoro-3-phenylquinazolin-4(3H)-one was subjected to high pressure in a hydraulic tablet press (ENERPAC Model P142 hydraulic press; #9166 0.275 inch punch) as shown in Table 3 below. The relaxation time is the time between compressions. A sample of the compressed solids was analyzed by XRPD and DSC. FIGS. 2A and 2B depict the XRPD and DSC patterns of polymorphic Form II.
# [7] = Form I suspensions in acetone at different temperatures: form conversion; conditions: magnetic stirring
# Method: Form I of (S)-2-(1-(9H-purin-6-ylamino)propyl)-5-fluoro-3-phenylquinazolin-4(3H)-one was suspended in acetone at a concentration of 50 mg/mL, and stirred magnetically over a period of 5-6 days. Four experiments at different temperature were conducted.
# Table 4 summarizes the reaction conditions and the amount of polymorphic forms observed for each of the four experiments. As used in this Example, “Enriched II” described a sample that contains substantially more Form II than Form I.
# [8] = Effect of temperature on form conversion of solids (DSC, heating, XRPD)
# Method: DSC indicated close melting points for each polymorph and a solid-solid transition in Form II at about 115° C. to produce Form I. To confirm this finding, […] of Form I of (S)-2-(1-(9H-purin-6-ylamino)propyl)-5-fluoro-3-phenylquinazolin-4(3H)-one was heated at 50° C., 60° C., 70° C., 80° C., 90° C., 100° C., 110° C. and 120° C. jacket temperature using Destiny for 22 hours.
# [9] = IPA/water aw 0.2, room temperature, solid by XRPD Form I & II
# [10] = IPA/water aw 0.3, room temperature, solid by XRPD Form I & II
# [11] = IPA/water aw 0.4, room temperature, solid by XRPD Form I & II
# [12] = IPA/water aw 0.5, room temperature, solid by XRPD Form I & II
# [13] = IPA/water aw 0.6, room temperature, solid by XRPD Form I & II
# [14] = Form I slurried in IPA/water aw 0.2, room temperature
# [15] = Form I slurried in IPA/water aw 0.3, room temperature
# [16] = Form I slurried in IPA/water aw 0.4, room temperature
# [17] = Form I slurried in IPA/water aw 0.5, room temperature
# [18] = Form I slurried in IPA/water aw 0.6, room temperature
# [19] = Form I slurried in IPA/water aw 0.7, room temperature
# [20] = Form I slurried in IPA/water aw 0.8, room temperature
# [21] = Form I slurried in IPA/water aw 0.9, room temperature
compound,measurement,setting,value
"CC[C@H](Nc1ncnc2[nH]cnc12)c1nc2cccc(F)c2c(=O)n1-c1ccccc1 [Form I, (S)-2-(1-(9H-purin-6-ylamino)propyl)-5-fluoro-3-phenylquinazolin-4(3H)-one]",solubility at 48 h,[1]; [9],24 mg/mL
same,solubility,[1]; [9],20 mg/mL
same,solubility at 48 h,[1]; [10],19 mg/mL
same,solubility,[1]; [10],19 mg/mL
same,solubility at 48 h,[1]; [11],18 mg/mL
same,solubility,[1]; [11],20 mg/mL
same,solubility at 48 h,[1]; [12],23 mg/mL
same,solubility,[1]; [12],20 mg/mL
same,solubility at 48 h,[1]; [13],23 mg/mL
same,solubility,[1]; [13],24 mg/mL
same,solubility at 48 h,"[1]; IPA/water aw 0.7, room temperature, solid by XRPD Form III",9.8 mg/mL
same,solubility at 48 h,"[1]; IPA/water aw 0.8, room temperature, solid by XRPD Form III",11 mg/mL
same,15-16 Day XRPD (solid form),[2]; [14],Form I & II
same,48 Hour XRPD (solid form),[2]; [14],Form I & II
same,15-16 Day XRPD (solid form),[2]; [15],Form I & II
same,48 Hour XRPD (solid form),[2]; [15],Form I & II
same,15-16 Day XRPD (solid form),[2]; [16],Form I & II
same,48 Hour XRPD (solid form),[2]; [16],Form I & II
same,15-16 Day XRPD (solid form),[2]; [17],Form I & II
same,48 Hour XRPD (solid form),[2]; [17],Form I & II
same,15-16 Day XRPD (solid form),[2]; [18],Form I & II
same,48 Hour XRPD (solid form),[2]; [18],Form I & II
same,15-16 Day XRPD (solid form),[2]; [19],Form III
same,48 Hour XRPD (solid form),[2]; [19],Form III
same,15-16 Day XRPD (solid form),[2]; [20],Form III
same,48 Hour XRPD (solid form),[2]; [20],Form III
same,15-16 Day XRPD (solid form),[2]; [21],Form III
same,48 Hour XRPD (solid form),[2]; [21],Form III
same,Form (solid form after slurry),"[3]; Form I slurried in ethanol/water aw 0.9, several days, room temperature",I & VII
same,Form conversion in ethanol/water system,"[3]; water activity 0.5 and 0.6, room temperature (data not shown in Table 6)",no conversion
same,Form conversion in ethanol/water system,"[3]; water activity from 0.2 to 0.4, room temperature (data not shown in Table 6)",slowly converted to Form II
same,conversion of Form I into Form II,[4]; after 18 hours,about 50%
same,conversion of Form I into Form II,[4]; after 40 hours,about 90%
same,Form II content,"[5]; 0.2 g, dry/wet grinding, acetone slurry, r.t., magnetic stirring, after 1 day",Enriched after 1 day
same,Form II content,"[5]; 0.2 g, dry/wet grinding, acetone slurry, r.t., magnetic stirring, after 2 days",Highly enriched after 2 days
same,Form II content,"[5]; 1 g, dry/wet grinding, acetone slurry, r.t., magnetic stirring, after 1 week",Trace amount after 1 week
same,Form II content,"[5]; 1 g, high shear mixer (dry), THF slurry, r.t., magnetic stirring, after 1 day",Trace amount after 1 day
same,Form II content,"[5]; 1 g, high shear mixer (dry), acetone slurry, r.t., magnetic stirring, after 1 day",Trace amount after 1 day
same,Form II content,"[5]; 1 g, jet milled, acetone slurry, 22 ° C., magnetic stirring, after 1 day",Small amount after 1 day
same,Form II content,"[5]; 1 g, jet milled, acetone slurry, 22 ° C., magnetic stirring, after 4 days",Enriched after 4 days
same,Form II content,"[5]; 5 g, high shear wet mill, acetone slurry, 30 ° C., overhead stirring, after 3 days",Undetectable after 3 days
same,Form II content,"[5]; 20 g, dry grinding, acetone slurry, 30 ° C., overhead stirring, after 3 days",Undetectable after 3 days
same,XRPD (forms observed),"[6]; 163 mg, 2000 psi, 5 min, relaxation time 72 hours",I & II (~1:1)
same,XRPD (forms observed),"[6]; 164 mg, 3000 psi, 5 min, relaxation time 2 hours",I & II (~1:1)
same,XRPD (forms observed),"[6]; 167 mg, 2000 psi, 10 min, relaxation time 72 hours",I & II (~1:1)
same,XRPD (forms observed),"[6]; 168 mg, 3000 psi, 10 min, relaxation time 2 hours",I & II (~1:1)
same,XRPD (forms observed),"[6]; 171 mg, 3000 psi, 60 min, relaxation time 72 hours",I & II (excess
same,XRPD (forms observed),"[6]; amount NA, atm pressure, no compression",Form I &
same,conversion of Form I to Form II,[6]; compressed at 3000 psi for 60 minutes (FIG. 5C),over 50%
same,XRPD (forms observed),"[6]; ~150 mg, 1000 psi, <0.5 min, relaxation time 24 hours",Form I and II
same,XRPD (forms observed),"[6]; ~150 mg, atm pressure, no compression",Form I and II
same,XRPD (forms observed),"[6]; ~160 mg, 4500 psi, <0.5 min",Form I and II
same,Form observed after suspension in acetone,"[7]; 50 mg/mL, 30 ° C., suspension time 5 days",Enriched II
same,Form observed after suspension in acetone,"[7]; 51 mg/mL, 27 ° C., suspension time 5 days",Enriched II
same,Form observed after suspension in acetone,"[7]; 52 mg/mL, 33 ° C., suspension time 6 days",Form I
same,Form observed after suspension in acetone,"[7]; 52 mg/mL, 37 ° C., suspension time 6 days",Form I
same,temperature at which form conversion of heated solids was observed,"[8]; solids heated at 50-120° C. jacket temperature for 22 hours, XRPD (FIG. 6)",around 90 °C
"CC[C@H](Nc1ncnc2[nH]cnc12)c1nc2cccc(F)c2c(=O)n1-c1ccccc1 [Form II, (S)-2-(1-(9H-purin-6-ylamino)propyl)-5-fluoro-3-phenylquinazolin-4(3H)-one]",solid-solid transition temperature (to produce Form I),[8]; by DSC,about 115 °C
